The target in one assay is T1, human PPARγ2 (Homo sapiens, UniProt P37231).
T1 construct: The full length human cDNA for PPARγ2 and PPARδ were subcloned; made in house; host or cells: E. coli
T1 sequence (P37231 1-505): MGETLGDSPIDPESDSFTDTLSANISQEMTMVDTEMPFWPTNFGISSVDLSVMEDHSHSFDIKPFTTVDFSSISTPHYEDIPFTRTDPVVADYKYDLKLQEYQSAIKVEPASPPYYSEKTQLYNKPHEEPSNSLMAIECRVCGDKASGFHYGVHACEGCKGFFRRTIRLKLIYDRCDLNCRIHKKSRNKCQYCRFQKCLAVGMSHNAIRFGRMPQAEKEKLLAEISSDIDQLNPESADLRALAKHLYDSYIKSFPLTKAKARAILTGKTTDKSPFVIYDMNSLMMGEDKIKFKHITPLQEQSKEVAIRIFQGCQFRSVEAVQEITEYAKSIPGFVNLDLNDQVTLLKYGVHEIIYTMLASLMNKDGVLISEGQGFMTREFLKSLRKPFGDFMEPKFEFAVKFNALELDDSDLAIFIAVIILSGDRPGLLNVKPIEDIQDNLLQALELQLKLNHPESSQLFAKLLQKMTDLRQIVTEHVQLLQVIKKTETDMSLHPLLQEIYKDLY
The assay can be described thus: PPAR Receptor Binding Assay: [3H]AD-5075 Displacement Assay for PPARγ2. To be noted: [3H2]AD-5075, gst-PPARγ2, ~16 h at 4° C., pH 7.2. An excerpt:
(§1) Compounds of the instant invention which are useful for the above discussed treatments can be identified and/or characterized by employing the PPARδ, and γ binding assays. The assays are useful in predicting or quantitating in vivo effects having to do with the control or modulation of glucose, free fatty acid, triglyceride, insulin or cholesterol. To evaluate IC50 or EC50, values the compounds were titrated in the appropriate assay using different concentrations of the compound to be tested. To obtain the appropriate values (%Inhibition-IC50, or %Activation-EC50), the data resulting from the assays were then analyzed by determining the best fit of a 4 parameter function to the data using the Levenberg-Marquardt non-linear fitting algorithm in Kaleidagraph (Synergy Software, Reading, Pa). The human nuclear receptor cDNA for PPARδ (hPPARδ) has been cloned from a human osteosarcoma cell cDNA library and is fully described in A. Schmidt et al., Molecular Endocrinology, 6:1634-1641 (1992), herein incorporated by reference in its entirety. See A. Elbrecht et al., Biochem. and Biophy. Res. Comm. 224:431-437 (1996) and T. Sher et al., Biochem. 32:5598-5604 (1993) for a description of the human nuclear receptor gene PPARγ, and α.
Human PPARγ2 and PPARδ, independently, were prepared as gst-fusion proteins in E. coli. […]

The target in a further assay is T2, human PPARδ (Homo sapiens, UniProt Q03181).
T2 construct: The full length human cDNA for PPARγ2 and PPARδ were subcloned; made in house; host or cells: E. coli
T2 sequence (Q03181 1-441): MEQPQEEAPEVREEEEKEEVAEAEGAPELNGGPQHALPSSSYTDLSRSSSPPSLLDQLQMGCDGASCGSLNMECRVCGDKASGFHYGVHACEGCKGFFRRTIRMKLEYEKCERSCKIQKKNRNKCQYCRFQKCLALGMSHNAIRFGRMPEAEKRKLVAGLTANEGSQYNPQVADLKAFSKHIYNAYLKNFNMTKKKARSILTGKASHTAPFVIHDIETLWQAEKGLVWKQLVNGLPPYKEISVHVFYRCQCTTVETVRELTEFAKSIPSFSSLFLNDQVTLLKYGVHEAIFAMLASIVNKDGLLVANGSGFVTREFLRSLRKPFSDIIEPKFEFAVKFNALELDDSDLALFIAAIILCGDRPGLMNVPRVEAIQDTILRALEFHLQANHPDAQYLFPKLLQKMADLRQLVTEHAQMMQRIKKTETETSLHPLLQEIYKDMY
Briefly: PPAR Receptor Binding Assay: [3H2]Example 11 Displacement Assay for PPARδ. The following applies: [3H2]Example 11, gst-PPARδ, ~16 h at 4° C., pH 7.2.
Text: as §1
The hPPARδ binding assay comprises the steps of: […]

Turning to `Cc1oc(-c2ccccc2)nc1C(O)COc1ccc(CC2SC(=O)NC2=O)cc1` (centres unmarked) [AD-5075], the Kd on human PPARγ2 is roughly 1 nM.
Regarding `CCCc1c(OCCc2cc3c4c(ccc3o2)C(C(=O)O)CCC4)ccc2c(-c3ccccc3)noc12` (centres unmarked) [Example 11, 2-(2-(3-phenyl-7-propylbenz[4,5]isoxazol-6-yloxy)ethyl)-4,5,6,7-tetrahydronaphtho[2,1-b]furan-7-carboxylic acid], the Kd on human PPARδ was roughly 1 nM.

As usually defined, the Kd is a measure of binding affinity in units of concentration.

These data come from patent US6090839A, “Antidiabetic agents” (Merck & Co., Inc., priority 1997, dated 2000).
